Patent US9290505B2, “Substituted imidazo[1,2-a]pyrazines as Syk inhibitors” (Gilead Sciences, Inc., priority 2013, dated 2016)
In brackets after ≈: the same amount, converted by molar mass.

Key:
Syk = Syk (Homo sapiens (Human), UniProt P43405); experiment: High Throughput Syk Biochemical Assay (KinEASE TR-FRET)
Protocol: Syk activity was measured using KinEASE (Cisbio), a time-resolved fluorescence resonance energy transfer (TR-FRET) immunoassay. In this assay, Syk-catalyzes the phosphorylation of a XL665-labeled peptide substrate. Europium conjugated phospho-tyrosine specific antibody binds the resulting phosphorylated peptide. Formation of phosphorylated peptide is quantified by TR-FRET with Europium as the donor and XL665 the acceptor in a 2-step endpoint assay. In brief, test compounds serially diluted in DMSO were delivered into Corning white, low volume, non-binding 384 well plates using the Echo 550 acoustic liquid dispenser (Labcyte®). Syk enzyme and substrates were dispensed into assay plates using a Multi-Flo (Bio-Tek Instruments).

[1] = Kinetic solubility in phosphate buffer at pH 7.4; type: physicochemical
Protocol: The kinetic solubility of compounds in phosphate buffer at pH 7.4 was assessed. The compounds to be tested were dissolved in dimethylsulfoxide at a 10 mM concentration. Stock samples were diluted, 3 μl with 297 μl of the phosphate buffer at pH 7.4 (DulBecco's phosphate buffered saline (Sigma-Aldrich D8662), overall molarity is 0.149M and pH 7.43). The samples were then incubated for 24 hours at 37° C. with shaking, the centrifuged and an aliquot taken and tested relative to a known standard concentration of 0.1 mM.

human hepatocytes = experiment: Human Hepatocyte Stability Assay; type: in vitro ADME; conditions: predicted hepatocyte clearance, 1 μM compound
Protocol: The human […] stability of the compounds as predicted hepatocyte clearance in L/hr/kg was assessed. Compounds to be tested were diluted to 200 μM (4 μl of 10 mM DMSO stock into 196 μl ACN:H2O (50:50). Propranolol was used as a positive control, and buffer only without hepatocytes as 0% control. These were further diluted 4 μl with 891 μl KHB buffer (InVitroGRO catalog number Z99074) to provide 2× dosing solution. To each well of 24 well plate, 250 μl of the 2× dosing solution was added to each well with 250 μl of hepatocytes cells (1×10^6 viable cells/ml per well) or KHB for control samples to achieve a final compound concentration of 1 μM during incubation. The final solvent concentration was 0.01% DMSO and 0.25% ACN. The culture plate was placed on a rocker and incubated at 37° C., 5% CO2. Samples were collected at time 0, 1, 3, and 6 hours. The loss of parent compound was determined using LC-MS methods against a standard curve.

[2] = comparison table with known Syk inhibitors
[3] = phosphate buffer, 37 °C, aqueous buffer, kinetic from dmso stock, comparison table, kinetic solubility pH 7.4
[4] = aqueous buffer, kinetic from dmso stock, kinetic solubility, phosphate buffer pH 7.4, 24 hours at 37° C.
[5] = comparison table, kinetic solubility pH 7.4

| SMILES | IC50 (Syk; [2]) [nM] | solubility at 24 h [1, 3] [µM] | IC50 (Syk; 20 μM ATP, 0.015 nM Syk) [nM] | solubility at 24 h [1, 4] [µM] | solubility at 24 h [1, 5] [µM] | Hheps CL (human hepatocytes) [mL/min/kg] |
| --- | --- | --- | --- | --- | --- | --- |
| Cc1ncc(-c2cn3ccnc3c(Nc3ccc(N4CCN(C5COC5)CC4)cc3)n2)nc1N [Ex.-1, 6-(6-amino-5-methylpyrazin-2-yl)-N-(4-(4-(oxetan-3-yl)piperazin-1-yl)phenyl)imidazo[1,2-a]pyrazin-8-amine] | 6.2 | – | 6.2 | 95 (≈ 43.5 µg/mL) | 95 (≈ 43.5 µg/mL) | 2 |
| Nc1cncc(-c2cn3ccnc3c(Nc3ccc(N4CCN(C5COC5)CC4)cc3)n2)n1 [Ex.-2, 6-(6-aminopyrazin-2-yl)-N-(4-(4-(oxetan-3-yl)piperazin-1-yl)phenyl)imidazo[1,2-a]pyrazin-8-amine] | – | – | – | 95 (≈ 42.1 µg/mL) | 95 (≈ 42.1 µg/mL) | 0.917 |
| Cc1c(-c2cncc(N)n2)nc(Nc2ccc(N3CCN(C4COC4)CC3)cc2)c2nccn12 [Ex.-4, 6-(6-aminopyrazin-2-yl)-5-methyl-N-(4-(4-(oxetan-3-yl)piperazin-1-yl)phenyl)imidazo[1,2-a]pyrazin-8-amine] | 44 | – | 44 | 100 (≈ 45.8 µg/mL) | 100 (≈ 45.8 µg/mL) | 1.3 |
| Nc1cncc(-c2cn3ccnc3c(Nc3ccc(N4CCN(C5COC5)CC4)c(OCCO)c3)n2)n1 [Ex.-5, 2-(5-((6-(6-aminopyrazin-2-yl)imidazo[1,2-a]pyrazin-8-yl)amino)-2-(4-(oxetan-3-yl)piperazin-1-yl)phenoxy)ethanol] | 12.2 | – | 12.2 | 97 (≈ 48.8 µg/mL) | 97 (≈ 48.8 µg/mL) | 1.2 |
| Nc1cncc(-c2cn3ccnc3c(Nc3ccc(N4CCN(CC(CO)CO)CC4)cc3)n2)n1 [Ex.-6, 2-((4-(4-((6-(6-aminopyrazin-2-yl)imidazo[1,2-a]pyrazin-8-yl)amino)phenyl)piperazin-1-yl)methyl)propane-1,3-diol] | 14.5 | – | 14.5 | 99 (≈ 47.1 µg/mL) | 99 (≈ 47.1 µg/mL) | 1.3 |
| Cc1ncc(-c2cn3ccnc3c(Nc3ccc(N4CCN(C5COC5)CC4)c(OCCO)c3)n2)nc1N [Ex.-7, 2-(5-((6-(6-amino-5-methylpyrazin-2-yl)imidazo[1,2-a]pyrazin-8-yl)amino)-2-(4-(oxetan-3-yl)piperazin-1-yl)phenoxy)ethanol] | 8.7 | – | 8.7 | – | – | 0.83 |

Other lines, results leading:

| IC50 (Syk; [2]) [nM] | solubility at 24 h [1, 3] [µM] | IC50 (Syk; 20 μM ATP, 0.015 nM Syk) [nM] | solubility at 24 h [1, 4] [µM] | solubility at 24 h [1, 5] [µM] | Hheps CL (human hepatocytes) [mL/min/kg] | SMILES |
| --- | --- | --- | --- | --- | --- | --- |
| 188 | 3 (≈ 1.08 µg/mL) | – | – | – | – | COc1ccc(Nc2nc(-c3cccc(N)c3)cn3ccnc23)cc1OC [6-(3-aminophenyl)-N-(3,4-dimethoxyphenyl)imidazo[1,2-a]pyrazin-8-amine, reference compound] |
| 16 | 5 (≈ 2.01 µg/mL) | – | – | – | – | Cc1ncc(-c2cn3ccnc3c(Nc3ccc(N4CCOCC4)cc3)n2)cc1N [6-(5-amino-6-methylpyridin-3-yl)-N-(4-morpholinophenyl)imidazo[1,2-a]pyrazin-8-amine, reference compound] |
| 31 | 5 (≈ 1.94 µg/mL) | – | – | – | – | Nc1cncc(-c2cn3ccnc3c(Nc3ccc(N4CCOCC4)cc3)n2)c1 [6-(5-aminopyridin-3-yl)-N-(4-morpholinophenyl)imidazo[1,2-a]pyrazin-8-amine, reference compound] |
| 53 | 10 (≈ 3.62 µg/mL) | – | – | – | – | COc1ccc(Nc2nc(-c3ccc(N)nc3)cn3ccnc23)cc1OC [6-(6-aminopyridin-3-yl)-N-(3,4-dimethoxyphenyl)imidazo[1,2-a]pyrazin-8-amine, reference compound] |
| 13.3 | – | 13.3 | 91 (≈ 38.1 µg/mL) | 91 (≈ 38.1 µg/mL) | 1.5 | Nc1cncc(-c2cn3ccnc3c(Nc3ccc(N4CCO[C@@H](CO)C4)cc3)n2)n1 [Ex.-3, (R)-(4-(4-((6-(6-aminopyrazin-2-yl)imidazo[1,2-a]pyrazin-8-yl)amino)phenyl)morpholin-2-yl)methanol] |
